In patent publication US10350158B2, “2′ fluoro-modified RNAs as immunostimulators” (DUKE UNIVERSITY, priority 2013, dated 2019):
Strand notation (5' to 3'): a small letter for the sugar, then the base; units joined by * are phosphorothioate-linked, units joined directly phosphodiester-linked; [ ] holds rarer units or linkages, { } end groups; capitals alone tell only the bases. {ppp} = triphosphate; r = 2'-OH (RNA); f = 2'-fluoro

Tests used:
[1] = system: WM266-4 cells; assay: Apoptosis / cell death by Annexin V-PE and 7-AAD flow cytometry; assay type: cell-based, human; conditions: aptamer treated with bacterial alkaline phosphatase (BAP), 0.125 μg/ml
Protocol: For the intracellular delivery of immune stimulatory RNAs, RNAs were transfected with the DharmaFECT® Duo liposomal transfection reagent (Thermo Scientific, Waltham, Mass.) at a transfection reagent (μl):RNA (μg) ratio of 3.75:1, according to the manufacturer's instructions. Unless otherwise stated, for the induction of innate immune responses and apoptosis, immune stimulatory RNAs (500 ng/ml) were transfected into 50 to 70% confluent cells. Cells were incubated with an RNA-transfection agent complex for 5 h, followed by replenishment with fresh culture medium. […]
(§1) Growth inhibition relative to untreated cells was quantified at 72 h after RNA transfection using an MTT Cell Proliferation Assay Kit (Cayman Chemicals, Ann Arbor, Mich.), according to the manufacturer's instructions. The percent growth inhibition was calculated by using the following equation: % growth inhibition=([O.D.]untreated−[O.D.]treated)/[O.D.]untreated×100. The induction of cell death was measured 48 h after RNA transfection by flow cytometry after staining with Annexin V-PE and 7-Aminoactinomycin D (7-AAD) using the PE Annexin V Apoptosis Detection Kit I (BD Biosciences, San Jose, Calif.) and analyzed using the CellQuest software (BD Biosciences).

[2] = system: IFNβ; assay: IFNβ ELISA of transfected melanoma cell supernatants; assay type: cell-based, human
Protocol: For the intracellular delivery of immune stimulatory RNAs, RNAs were transfected with the DharmaFECT® Duo liposomal transfection reagent (Thermo Scientific, Waltham, Mass.) at a transfection reagent (μl):RNA (μg) ratio of 3.75:1, according to the manufacturer's instructions. Unless otherwise stated, for the induction of innate immune responses and apoptosis, immune stimulatory RNAs (500 ng/ml) were transfected into 50 to 70% confluent cells. Cells were incubated with an RNA-transfection agent complex for 5 h, followed by replenishment with fresh culture medium. To electroporate cells, 1×10^5 cells suspended in 200 μl Opti-MEM I (Invitrogen) were mixed with 1 μg of immune stimulatory RNAs or 5 μg of 2'Fluoro pyrimidine ribonucleoside triphosphate in 2-mm cuvettes and were electroporated at 300 V for 500 μs using an Electro Square Porator ECM 830 (BTX, San Diego, Calif.). For the knockdown of RNA-sensing PRRs, cells were transfected with PRR-specific siRNAs (25 nM) twice at 2-day intervals using DharmaFECT®-1 (Thermo Scientific). At 5 h after the second siRNA transfection, cells were harvested, replated into a 96-well plate and incubated overnight. Cells were then treated with immune stimulatory RNA transfections. Staurosporine (2 μM) (Sigma, St Louis, Mo.) and recombinant human IFNβ (20 ng/ml) (PeproTech, Rocky Hill, N.J.) were used as positive controls of anti-melanoma cytotoxicity. […] (100 ng/ml) (eBioscience, San Diego, Calif.) was added directly to the growth media of cells to neutralize IFNβ. Cells were transfected with RNAs as described above. At 24 hours after RNA transfection, culture supernatants were collected and stored at -80° C. for later analyses. The production of human IL-8 was analyzed with a human IL-8 ELISA kit (eBioscience). IFN-β production was determined with a human IFN-β ELISA kit (PBL Biomedical Laboratories, Piscataway, N.J.) by following the manufacturer's instructions.

[3] = biological target: T1, human TLR3 (Homo sapiens, UniProt O15455); assay: HEK-hTLR3-NFκB/SEAP reporter assay; assay type: cell-based; conditions: QUANTI-BLUE
T1 construct: host or cells: HEK293 (HEK-hTLR3-NFκB/SEAP)
Protocol: (§2) The human TLR3 reporter cell, HEK-hTLR3-NFκB/SEAP was purchased from Invivogen. These cells were stably co-transfected with the human TLR3 gene and an inducible SEAP (secreted embryonic alkaline phosphatase) reporter gene into HEK293 cells. The SEAP gene is placed under the control of NF-κB and AP-1. […] SEAP gene expression was measured using the SEAP detection media QUANTI-BLUE (Invivogen), according to the manufacturer's instructions. FIG. 3B is a graph showing that TLR7 is not stimulated by the ssRNAs. Human TLR7-expressing HEK293 cells were kindly provided by Dr. Todd Brennan (Duke University, Durham, N.C.). Treatment with R848 but not with polyI:C, polyI:C-DF and 5′ppp 2′F 10F-DF complexes stimulated HEK-TLR7 cells to produce the inflammatory cytokine IL-8. The data represent the mean of two experiments. Error bars represent the S.D.

[4] = biological target: T2, Human TLR7 (Homo sapiens, UniProt Q9NYK1); assay: IL-8 production by human TLR7-expressing HEK293 cells; assay type: cell-based
T2 construct: expressed in transfected cells; host or cells: HEK293 (HEK-TLR7), gift of Dr. Todd Brennan, Duke University
T2 sequence (Q9NYK1 27-1049): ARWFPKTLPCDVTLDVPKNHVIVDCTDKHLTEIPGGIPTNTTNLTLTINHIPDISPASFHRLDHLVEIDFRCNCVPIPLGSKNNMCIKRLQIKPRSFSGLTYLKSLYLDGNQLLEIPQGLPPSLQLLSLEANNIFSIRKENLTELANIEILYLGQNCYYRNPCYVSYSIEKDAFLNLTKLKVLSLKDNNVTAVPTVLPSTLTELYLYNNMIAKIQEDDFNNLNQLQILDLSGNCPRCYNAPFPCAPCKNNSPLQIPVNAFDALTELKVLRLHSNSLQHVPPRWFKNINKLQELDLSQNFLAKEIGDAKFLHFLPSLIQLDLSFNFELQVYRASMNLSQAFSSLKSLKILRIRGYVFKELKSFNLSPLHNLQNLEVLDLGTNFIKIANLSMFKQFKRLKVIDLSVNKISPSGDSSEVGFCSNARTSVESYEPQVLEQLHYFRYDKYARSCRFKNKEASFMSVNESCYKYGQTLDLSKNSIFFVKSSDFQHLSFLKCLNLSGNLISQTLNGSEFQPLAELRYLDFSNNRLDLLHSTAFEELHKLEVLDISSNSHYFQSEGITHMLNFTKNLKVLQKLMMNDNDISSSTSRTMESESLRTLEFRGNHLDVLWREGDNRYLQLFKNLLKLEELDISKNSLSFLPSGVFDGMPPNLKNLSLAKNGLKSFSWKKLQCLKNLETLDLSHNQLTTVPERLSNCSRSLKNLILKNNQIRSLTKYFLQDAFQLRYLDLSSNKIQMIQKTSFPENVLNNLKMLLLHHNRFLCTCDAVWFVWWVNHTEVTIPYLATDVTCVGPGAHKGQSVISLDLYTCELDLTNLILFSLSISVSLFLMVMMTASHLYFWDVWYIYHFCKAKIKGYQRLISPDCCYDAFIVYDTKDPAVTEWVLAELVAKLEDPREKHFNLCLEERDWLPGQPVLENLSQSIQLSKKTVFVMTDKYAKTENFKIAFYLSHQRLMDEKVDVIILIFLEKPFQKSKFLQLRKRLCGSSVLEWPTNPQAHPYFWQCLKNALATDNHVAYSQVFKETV
Protocol: as §2

[5] = system: WM266-4 cells; assay type: cell-based; conditions: MTT
Protocol: For the intracellular delivery of immune stimulatory RNAs, RNAs were transfected with the DharmaFECT® Duo liposomal transfection reagent (Thermo Scientific, Waltham, Mass.) at a transfection reagent (μl):RNA (μg) ratio of 3.75:1, according to the manufacturer's instructions. Unless otherwise stated, for the induction of innate immune responses and apoptosis, immune stimulatory RNAs (500 ng/ml) were transfected into 50 to 70% confluent cells. Cells were incubated with an RNA-transfection agent complex for 5 h, followed by replenishment with fresh culture medium. To electroporate cells, 1×10^5 cells suspended in 200 μl Opti-MEM I (Invitrogen) were mixed with 1 μg of immune stimulatory RNAs or 5 μg of 2′Fluoro pyrimidine ribonucleoside triphosphate in 2-mm cuvettes and were electroporated at 300 V for 500 μs using an Electro Square Porator ECM 830 (BTX, San Diego, Calif.). For the knockdown of RNA-sensing PRRs, cells were transfected with PRR-specific siRNAs (25 nM) twice at 2-day intervals using DharmaFECT®-1 (Thermo Scientific). At 5 h after the second siRNA transfection, cells were harvested, replated into a 96-well plate and incubated overnight. Cells were then treated with immune stimulatory RNA transfections. Staurosporine (2 μM) (Sigma, St Louis, Mo.) and recombinant human IFNβ (20 ng/ml) (PeproTech, Rocky Hill, N.J.) were used as positive controls of anti-melanoma cytotoxicity. B18R (100 ng/ml) (eBioscience, San Diego, Calif.) was added directly to the growth media of cells to neutralize IFNβ.
as §1

T1 sequence (O15455 24-904): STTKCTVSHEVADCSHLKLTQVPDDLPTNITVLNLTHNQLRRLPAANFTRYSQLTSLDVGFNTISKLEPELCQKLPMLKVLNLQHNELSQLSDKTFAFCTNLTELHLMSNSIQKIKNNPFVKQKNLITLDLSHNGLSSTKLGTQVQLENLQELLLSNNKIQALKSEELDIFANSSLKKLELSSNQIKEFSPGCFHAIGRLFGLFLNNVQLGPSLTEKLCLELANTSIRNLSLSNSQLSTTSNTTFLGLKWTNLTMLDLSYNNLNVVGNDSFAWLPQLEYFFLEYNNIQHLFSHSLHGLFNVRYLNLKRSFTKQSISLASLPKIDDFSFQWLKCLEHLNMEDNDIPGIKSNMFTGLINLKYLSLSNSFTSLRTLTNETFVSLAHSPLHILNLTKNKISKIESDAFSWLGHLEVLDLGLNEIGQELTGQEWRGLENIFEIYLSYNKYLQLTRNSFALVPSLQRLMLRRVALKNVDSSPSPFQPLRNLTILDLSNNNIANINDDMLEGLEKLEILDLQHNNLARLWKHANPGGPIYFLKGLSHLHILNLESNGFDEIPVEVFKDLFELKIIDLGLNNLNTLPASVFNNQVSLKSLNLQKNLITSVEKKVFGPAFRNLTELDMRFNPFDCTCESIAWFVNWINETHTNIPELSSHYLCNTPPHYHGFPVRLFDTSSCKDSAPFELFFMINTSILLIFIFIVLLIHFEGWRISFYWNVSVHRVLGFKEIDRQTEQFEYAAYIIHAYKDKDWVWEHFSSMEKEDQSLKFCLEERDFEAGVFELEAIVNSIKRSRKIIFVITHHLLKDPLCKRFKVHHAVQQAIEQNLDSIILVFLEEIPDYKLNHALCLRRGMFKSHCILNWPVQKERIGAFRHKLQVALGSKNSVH

9.14T10: 5′ppp 2′F ssRNA aptamer, 60 nt, von Willebrand Factor-specific, SEQ ID NO: 6 ({ppp}-rGrGrGrArGrGfUrGrGrAfCrGrArAfCfUrGfCfCfCfUfCrArGfCfUrAfCfUfUfUfCrAfUrGfUfUrGfCfUrGrAfCrGfCrAfCrArGrAfCrGrAfCfUfCrGfCfUrG) [Aptamer 9.14T10]
apoptosis after dephosphorylation of the aptamer [1]: partially prevented | IFNβ production after dephosphorylation of the aptamer ([2]; aptamer treated with bacterial alkaline phosphatase (BAP), 0.125 μg/ml): partially prevented

CCOCc1nc2c(N)nc3ccccc3c2n1CC(C)(C)O [Aptamer R848, R848]
stimulation of TLR3 reporter cells (SEAP) [3]: not | stimulation of HEK-TLR7 cells to produce IL-8 [4]: stimulated

Poly(U)30: 5′ppp-2′F ssRNA of 30 uridines, minimal secondary structure, SEQ ID NO: 13 (UUUUUUUUUUUUUUUUUUUUUUUUUUUUUU; 5'-triphosphate, 2'-fluoro modifications; Synthetic RNA Aptamer Poly(U)30)
growth inhibition / cytotoxicity (anti-melanoma effect), in words ([5]; liposomal transfection, 72 h): not

Motif 1A: 37-mer extended variant of Motif 1 with longer 5′overhang, SEQ ID NO: 15 ({ppp}-rGrGrGfUrArArGfUrGrGrGrArGrGrAfCrGrAfUrGfCrGrGfUrAfCfCfUrGrAfCrArGfCrAfUfC)
cytotoxic effect compared to treatment with Motif 1 [5]: significantly decreased | IFNβ production compared to treatment with Motif 1 ([2]; IFNβ ELISA): significantly decreased

Motif 1: 29-mer 5′ppp-2′F ssRNA, 5′overhang stem-loop, first 29 nucleotides of 10F, SEQ ID NO: 14 ({ppp}-rGrGrGrArGrGrAfCrGrAfUrGfCrGrGfUrAfCfCfUrGrAfCrArGfCrAfUfC)
cytotoxicity compared to 10F treatment, in words [5]: significantly lower | IFNβ induction compared to 10F treatment, in words ([2]; IFNβ ELISA): significantly lower

Motif 3: 30-mer extended variant of Motif 2, 3′overhang stem-loop, SEQ ID NO: 17 ({ppp}-rGrGrAfUrGfCrGrGfUrAfCfCfUrGrAfCrArGfCrAfUfCfUfUrGrArArAfUrA)
cytotoxicity compared to 10F treatment, in words [5]: not statistically significant | IFNβ induction compared to 10F treatment, in words ([2]; IFNβ ELISA): not statistically significant

polyI:C
stimulation of TLR3 reporter cells (SEAP) [3]: specifically stimulated | stimulation of HEK-TLR7 cells to produce IL-8 [4]: not
